Assay results as given in US20050209278A1, “Piperidinyl- and piperazinyl-sulfonylmethyl hydroxamic acids and their use as protease inhibitors” (priority 2002, published 2005).
Counter-ions that a name gives are not always drawn.

Assays:
MMP-14 = molecular target: T1, MMP-14 (Homo sapiens, UniProt P50281); test: In vitro MMP inhibition, IC50 determination (fluorogenic substrate I); format: biochemical; conditions: values in parenthesis; 4 μM substrate I; room temperature
T1 construct: The catalytic domain enzyme was expressed in E. coli inclusion bodies, solubilized in urea; made in house
Method: Several hydroxamic acids and salts thereof were analyzed in in vitro assays to determine their ability to inhibit the MMP cleavage of peptide substrates. […] and IC50 constants were calculated from the assayed hydroxamic acid-MMP interactions. Human recombinant MMP-1, MMP-2, MMP-9, MMP-13, and MMP-14 were used in this assay. All enzymes were prepared in Assignee's laboratories following usual laboratory procedures. Protocols for the preparation and use of these enzymes are available in the scientific literature. See, e.g., Enzyme Nomenclature (Academic Press, San Diego, Calif., 1992) (and the citations therein). See also, Freije et al., “Molecular cloning and expression of collagenase-3, a novel human matrix metalloproteinase produced by breast carcinomas,” J Biol. Chem., 269(24), 16766-16773 (1994). The MMP-14 full length cDNA was provided by Dr. Gregory Goldberg of Washington University (St. Louis, Mo.). The catalytic domain enzyme was expressed in E. coli inclusion bodies, solubilized in urea, purified on a preparative […] reverse phase HPLC column, and then refolded in the presence of zinc acetate and purified for use. All MMPs were activated using 4-aminophenylmercuric acetate (“APMA”, Sigma Chemical, St. Louis, Mo.) or trypsin. MMP-9 also was activated using human recombinant MMP-3 (purified in Assignee's laboratory following standard cloning and purification techniques). […] Substrate (I) was purchased from Baychem (Redwood City, Calif.), and substrate II was prepared Assignee's laboratory. Substrate I was used in the IC50 determination assays, while substrate II was used in the Ki determination assays. In the absence of MMP inhibitory activity, either substrate is cleaved at the Gly-Leu peptide bond. […] The stock solutions of the assayed hydroxamic acids (or salts thereof) were prepared in 1% dimethyl sulfoxide (DMSO). […] The experiment controls contained the same amount of Buffer A/DMSO as the assayed sample, but contained no hydroxamic acid (or salt thereof). The assays from which the IC50 determinations were made were performed as follows. […] Louis, Mo.). The assayed hydroxamic acid samples were incubated in MicrofluorTM White Plates (Dynatech, Chantilly, Va.) and analyzed on a Perkin Elmer […] plate reader (Norwalk, Conn.). The excitation wavelength was 328 nm, and the emission wavelength-415 nm. […] As stated in the previous paragraph, samples containing varying concentrations of the same assayed hydroxamic acid were prepared. Inhibition was measured as a reduction in fluorescent intensity as a function of MMP inhibitor concentration. […] All values in Table 2 are given in nM units. The IC50 measurements are in parenthesis.

MMP-13 = molecular target: T2, MMP-13 (Homo sapiens, UniProt P45452); test: as above; format: biochemical; conditions: values in parenthesis; 4 μM substrate I; room temperature
T2 construct: made in house; host or cells: baculovirus / insect cells
Method: Several hydroxamic acids and salts thereof were analyzed in in vitro assays to determine their ability to inhibit the MMP cleavage of peptide substrates. […] and IC50 constants were calculated from the assayed hydroxamic acid-MMP interactions.
Human recombinant MMP-1, MMP-2, MMP-9, MMP-13, and MMP-14 were used in this assay. All enzymes were prepared in Assignee's laboratories following usual laboratory procedures. Protocols for the preparation and use of these enzymes are available in the scientific literature. See, e.g., Enzyme Nomenclature (Academic Press, San Diego, Calif., 1992) (and the citations therein). See also, Freije et al., “Molecular cloning and expression of collagenase-3, a novel human matrix metalloproteinase produced by breast carcinomas,” J Biol. Chem., 269(24), 16766-16773 (1994).
The MMP-13 was obtained as a proenzyme from a full-length cDNA clone using baculovirus, as described by V. A. Luckow, “Insect Cell Expression Technology,” Protein Engineering: Principles and Practice, pp. 183-218 (edited by J. L. Cleland et al., Wiley-Liss, Inc., 1996). The expressed proenzyme was first purified over a heparin agarose column, and then over a chelating zinc chloride column. The proenzyme was then activated by APMA for use in the assay. Further details on baculovirus expression systems may be found in, for example, Luckow et al., J. Virol., 67, 4566-79 (1993). See also, O'Reilly et al, Baculovirus Expression Vectors: A Laboratory Manual (W.H. Freeman and Co., New York, N.Y., 1992). See also, King et al., The Baculovirus Expression System: A Laboratory Guide (Chapman & Hall, London, England, 1992).
All MMPs were activated using 4-aminophenylmercuric acetate (“APMA”, Sigma Chemical, St. Louis, Mo.) or trypsin. MMP-9 also was activated using human recombinant MMP-3 (purified in Assignee's laboratory following standard cloning and purification techniques).
Two fluorogenic, methoxycoumarin-containing polypeptide substrates were used in the MMP inhibition assays: [drawing 427] Here, “Dpa” is 3-(2,4-dinitrophenyl)-L-2,3-diaminopropionyl group, and “MCA” is 7-methoxycoumarin-4-yl acetyl. Substrate (I) was purchased from Baychem (Redwood City, Calif.), and substrate II was prepared Assignee's laboratory. Substrate I was used in the IC50 determination assays, while substrate II was used in the Ki determination assays. In the absence of MMP inhibitory activity, either substrate is cleaved at the Gly-Leu peptide bond. This cleavage separates the highly fluorogenic peptide from the 2,4-dinitrophenyl quencher, thus resulting in increase of fluorescent intensity.
The stock solutions of the assayed hydroxamic acids (or salts thereof) were prepared in 1% dimethyl sulfoxide (DMSO). These stock solutions were diluted in Buffer A (100 mM Tris-HCl, 100 mM NaCl, 10 mM CaCl2, 0.05% polyoxyethylene 23 lauryl ether, pH 7.5) to obtain solutions with different hydroxamic acid concentrations, i.e., assay solutions with different concentrations of the assayed MMP inhibitory compound. The experiment controls contained the same amount of Buffer A/DMSO as the assayed sample, but contained no hydroxamic acid (or salt thereof).
The assays from which the IC50 determinations were made were performed as follows. The MMPs were activated with either trypsin or APMA (4-aminophenylmercuric acetate, Sigma Chemical, St. Louis, Mo.). The assayed hydroxamic acid samples were incubated in Microfluor™ White Plates (Dynatech, Chantilly, Va.) and analyzed on a Perkin Elmer L550 plate reader (Norwalk, Conn.). The excitation wavelength was 328 nm, and the emission wavelength—415 nm. All samples (assayed hydroxamic acids and controls) were incubated in separate plates at room temperature in the presence of 4 μM of MMP substrate (I). As stated in the previous paragraph, samples containing varying concentrations of the same assayed hydroxamic acid were prepared. Inhibition was measured as a reduction in fluorescent intensity as a function of MMP inhibitor concentration. […]

SMILES | IC50 (MMP-14) [nM] | IC50 (MMP-13) [nM]
CCCCCc1ccc(C2CCN(S(=O)(=O)C3(C(=O)NO)CCN(CCOC)CC3)CC2)cc1 [Example 15, N-hydroxy-1-(2-methoxyethyl)-4-{[4-(4-pentylpheyl)piperidin-1-yl]sulfonyl}piperidine-4-carboxamide Hydrochloride] | 6170 | 0.1
CCCCOc1ccc(N2CCN(S(=O)(=O)C3(C(=O)NO)CCN(CCOC)CC3)CC2)cc1F [Example 11, 4-[[4-(4-butoxy-3-fluorophenyl)-1-piperazinyl]sulfonyl]-N-hydroxy-1-(2-methoxyethyl)-4-piperidinecarboxamide, Dihydrochloride] | 7120 | 0.8
CCCCCc1ccc(N2CCN(S(=O)(=O)C3(C(=O)NO)CCN(CCOC)CC3)CC2)cc1 [Example 6, N-Hydroxy-1-(2-methoxyethyl)-4-{[4-(4-pentylphenyl)piperazin-1-yl]sulfonyl}piperidine-4-carboxamide Dihydrochloride] | > 10000 | 0.1

Continued, values first:

IC50 (MMP-14) [nM] | IC50 (MMP-13) [nM] | SMILES
4550 | < 0.1 | CCCCc1ccc(N2CCN(S(=O)(=O)C3(C(=O)NO)CCN(CCOC)CC3)CC2)cc1 [Example 5, 4-{[4-(4-butylphenyl)piperazin-1-yl]sulfonyl}-N-hydroxy-1-(2-methoxyethyl)piperidine-4-carboxamide Dihydrochloride]
5820 | 1.3 | O=C(NO)C1(S(=O)(=O)N2CCN(c3ccc(OCC4CC4)c(F)c3)CC2)CCN(C2CC2)CC1 [Example 10, 1-cyclopropyl-4-[[4-[4-(cyclopropylmethoxy)-3-fluorophenyl]-1-piperazinyl]sulfonyl]-N-hydroxy-4-piperidinecarboxamide, dihydrochloride]
